{
  "source": "patent US20120225862A1",
  "about": "“HETEROARYL BENZAMIDES, COMPOSITIONS AND METHODS OF USE” (AUCKLAND UNIVSERVICES LIMITED, priority 2009, published 2012)",
  "key": {"RCC4/VHL": {"test_system": "RCC4/VHL", "experiment": "Clonogenic survival, RCC4/VHL", "format": "cell-based, human", "settings": "RCC4/VHL (wild-type VHL), 5 μM, 10 days", "experimental": "Three hundred cells were plated into 60-mm tissue culture dishes in DMEM. The next day, cells were treated with vehicle or drug and were further incubated for an additional 10 days. After 10 days, the media was removed and colonies were fixed and stained in 95% ethanol and 0.1% crystal violet for 15 minutes. The stain was removed and plates were washed in deionized water. Colonies were quantified. All conditions were measured in triplicate and all experiments were performed in triplicate.\nFor 2,3-bis[2-methoxy-4-nitro-5-sulfophenyl]-2H-tetrazolium-5-carboxanilide (XTT) assays, five thousand cells were plated in 96-well plates. The next day, vehicle (DMSO) or drug was added by serial dilution. Four days later, media were aspirated, XTT solution (0.3 mg/ml of XTT (Sigma), 2.65 mg/ml N-methyl dibenxopyrazine methyl sulfate (Simga) in phenol red-free media) was added, and the plates were incubated at 37° C. for 1-2 hours. Metabolism of XTT was quantified by measuring the absorbance at 450 nm. IC50s were calculated using linear interpolation. For clonogenic survival assays, three hundred cells were plated per 60 mm tissue culture dish. The cells were allowed to attach overnight and then treated with vehicle or drug for 14 days. […] All conditions were measured in triplicate and each experiment was done in duplicate or triplicate. […] Live and dead cells were counted on a hematocytometer."}, "GSK3α": {"target": "T1, GSK3α (Homo sapiens, UniProt P49840)", "T1 construct": "purchased Millipore (KinaseProfiler service)", "T1 sequence (P49840 whole entry, species assumed)": "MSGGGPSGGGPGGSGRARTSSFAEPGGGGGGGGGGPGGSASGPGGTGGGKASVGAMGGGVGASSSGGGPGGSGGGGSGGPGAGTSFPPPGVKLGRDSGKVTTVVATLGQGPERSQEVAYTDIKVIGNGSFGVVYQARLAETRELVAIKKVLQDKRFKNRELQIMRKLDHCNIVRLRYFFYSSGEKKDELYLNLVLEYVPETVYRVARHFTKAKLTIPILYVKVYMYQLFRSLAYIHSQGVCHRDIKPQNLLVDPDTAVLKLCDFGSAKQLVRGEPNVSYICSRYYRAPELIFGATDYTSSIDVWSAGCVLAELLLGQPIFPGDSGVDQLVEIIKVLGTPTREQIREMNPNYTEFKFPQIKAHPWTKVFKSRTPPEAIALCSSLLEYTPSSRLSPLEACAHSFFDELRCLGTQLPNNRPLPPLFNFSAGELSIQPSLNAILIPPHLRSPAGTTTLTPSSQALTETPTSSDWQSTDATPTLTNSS", "experiment": "In vitro kinase activity (Millipore KinaseProfiler): GSK3α", "format": "biochemical", "settings": "no head or unit printed", "experimental": "(§1) All cells were grown in DMEM+10% FCS. ACHN and ACHN shVHL were a kind gift from George V. Thomas (UCLA). HIF overexpressing clones were described previously. Transfection of RNA oligos were performed with DnarmaFECT Reagent 1 (Dharmcon), according to manufacturer's directions. ON-TARGETplus SMART pools against HIF-1β/ARNT were purchased from Dharmacon. Glut1 was detected with anti-GLUT1 antibody from NeoMarkers/LabVision/Fisher. Pyruvate/lactate levels and hexokinase activity were both measured by fluorometric assay (BioVision and Sigma-Aldrich, respectively). ATP levels were measured by bioluminescence assay (ATP Determination Kit from Molecular Probes/Invitrogen). In vitro kinase activities were performed by Millipore KinaseProfiler. Affi-Gel 10 (BioRad) activated affinity media was coupled to analogs to generate immobilized affinity linkers.\n(§2) We next wanted to investigate the differential glucose uptake between RCCs with and without VHL treated with compound 47 that subsequently lead to the selective death of VHL-deficient cells. We first examined the message levels of the two main glucose transporters, GLUT1 and GLUT2 by quantitative real-time PCR. GLUT1 is an inducible, high-affinity glucose transporter, while GLUT2 is the glucose transporter responsible for basal glucose uptake. […] Cells deficient in VHL had very low levels of GLUT2 that could barely be detected (FIG. 3J). […]"}, "Pim-2": {"target": "T2, Pim-2 (Homo sapiens, UniProt Q9P1W9)", "T2 construct": "purchased Millipore (KinaseProfiler service)", "T2 sequence (Q9P1W9 whole entry, species assumed)": "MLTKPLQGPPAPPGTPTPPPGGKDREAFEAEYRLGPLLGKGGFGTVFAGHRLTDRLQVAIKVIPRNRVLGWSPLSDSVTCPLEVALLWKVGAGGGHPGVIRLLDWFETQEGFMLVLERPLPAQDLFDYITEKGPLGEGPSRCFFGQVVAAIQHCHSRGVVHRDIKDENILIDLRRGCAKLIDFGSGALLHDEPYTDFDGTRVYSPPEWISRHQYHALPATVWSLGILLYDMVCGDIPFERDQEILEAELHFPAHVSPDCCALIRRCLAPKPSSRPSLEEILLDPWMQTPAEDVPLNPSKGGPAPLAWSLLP", "experiment": "In vitro kinase activity (Millipore KinaseProfiler): Pim-2", "format": "biochemical", "settings": "no head or unit printed", "experimental": "as §1, §2"}, "Tie2": {"target": "T3, Tie2 (Homo sapiens, UniProt Q02763)", "T3 construct": "purchased Millipore (KinaseProfiler service)", "T3 sequence (Q02763 23-1124)": "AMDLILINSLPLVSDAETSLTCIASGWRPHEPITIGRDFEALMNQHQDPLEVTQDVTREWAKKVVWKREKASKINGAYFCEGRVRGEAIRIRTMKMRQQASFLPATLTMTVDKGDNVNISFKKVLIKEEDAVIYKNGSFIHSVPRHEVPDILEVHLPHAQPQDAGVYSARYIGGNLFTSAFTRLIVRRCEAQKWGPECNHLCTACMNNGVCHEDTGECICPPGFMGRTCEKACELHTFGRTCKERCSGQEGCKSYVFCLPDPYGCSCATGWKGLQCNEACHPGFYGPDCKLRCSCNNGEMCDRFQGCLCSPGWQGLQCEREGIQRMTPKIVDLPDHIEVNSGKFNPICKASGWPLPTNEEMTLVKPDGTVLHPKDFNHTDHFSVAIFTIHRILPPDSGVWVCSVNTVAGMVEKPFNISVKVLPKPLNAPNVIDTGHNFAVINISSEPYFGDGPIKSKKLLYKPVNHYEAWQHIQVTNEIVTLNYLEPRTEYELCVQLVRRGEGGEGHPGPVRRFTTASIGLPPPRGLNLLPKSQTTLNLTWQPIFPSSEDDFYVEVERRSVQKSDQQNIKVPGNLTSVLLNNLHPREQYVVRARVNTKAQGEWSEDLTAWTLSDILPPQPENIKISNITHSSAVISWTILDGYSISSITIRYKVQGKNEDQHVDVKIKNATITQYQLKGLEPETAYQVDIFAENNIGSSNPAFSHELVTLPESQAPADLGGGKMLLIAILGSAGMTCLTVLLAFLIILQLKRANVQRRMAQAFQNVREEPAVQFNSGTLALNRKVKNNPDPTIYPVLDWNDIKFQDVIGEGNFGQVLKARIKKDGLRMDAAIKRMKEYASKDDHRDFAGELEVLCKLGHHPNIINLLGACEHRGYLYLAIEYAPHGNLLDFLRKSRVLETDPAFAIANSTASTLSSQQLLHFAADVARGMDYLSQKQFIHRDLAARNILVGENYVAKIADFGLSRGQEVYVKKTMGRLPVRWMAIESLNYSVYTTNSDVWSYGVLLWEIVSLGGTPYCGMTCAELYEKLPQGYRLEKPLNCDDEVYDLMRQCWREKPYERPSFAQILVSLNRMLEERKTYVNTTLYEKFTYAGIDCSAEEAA", "experiment": "In vitro kinase activity (Millipore KinaseProfiler): Tie2", "format": "biochemical", "settings": "no head or unit printed", "experimental": "as §1, §2"}},
  "data": [
    {"molecule": "CC(C)(C)c1ccc(S(=O)(=O)NCc2ccc(C(=O)Nc3cccnc3)cc2)cc1", "note": "[Example 38, 4-((4-tert-Butylphenylsulfonamido)methyl)-N-(pyridin-3-yl)benzamide]", "values": [
      {"measurement": "clonogenic survival of RCC4/VHL", "setting": "RCC4/VHL", "value": "relatively unaffected"},
      {"measurement": "GSK3α kinase activity", "setting": "GSK3α", "value": 134},
      {"measurement": "Pim-2 kinase activity", "setting": "Pim-2", "value": 112},
      {"measurement": "Tie2 kinase activity", "setting": "Tie2", "value": 111, "unit": "%"}
    ]}
  ]
}
